The NIST ThermoML archive (doi:10.1021/acs.jced.6b00786)

Experiment: xn = mol fraction of the nth substance listed
Conditions: 101 kPa, Liquid, Vibrating tube method

NC=O [formamide] + O
mass density [kg/m3]
Conditions	288.15 K	298.15 K	308.15 K	323.15 K	333.15 K
x1 = 0.00244	–	997.942	994.873	988.848	983.879
x1 = 0.00515	–	998.905	995.763	989.627	984.704
x1 = 0.0086	–	1000.14	996.897	990.671	985.696
x1 = 0.02032	–	1004.2	1000.68	994.128	988.955
x1 = 0.03478	–	1009	1005.15	998.15	992.755
x1 = 0.04976	–	1013.73	1009.5	1002.11	996.5
x1 = 0.06674	–	1018.77	1014.31	1006.45	1000.6
x1 = 0.08229	–	1023.18	1018.42	1010.31	1004.2
x1 = 0.1171	–	1032.35	1027.15	1018.36	1011.84
x1 = 0.1745	–	1045.52	1039.6	1030.08	1023.19
x1 = 0.2169	–	1053.94	1047.65	1037.62	1030.56
x1 = 0.2557	–	1060.92	1054.32	1043.94	1036.75
x1 = 0.3026	–	1068.56	1061.67	1050.89	1043.42
x1 = 0.351	–	1075.56	1068.41	1057.31	1049.67
x1 = 0.4027	–	1082.34	1074.96	1063.57	1055.76
x1 = 0.4487	–	1087.78	1080.22	1068.62	1060.68
x1 = 0.4886	–	1092.05	1084.37	1072.62	1064.58
x1 = 0.5601	–	1099.14	1091.28	1079.26	1071.15
x1 = 0.5916	–	1102.04	1094.1	1081.99	1073.78
x1 = 0.6674	–	1108.34	1100.24	1087.95	1079.63
x1 = 0.7066	–	1111.34	1103.2	1090.81	1082.46
x1 = 0.7495	1122.53	1114.37	1106.15	1093.69	1085.28
x1 = 0.7931	1125.6	1117.37	1109.09	1096.56	1088.11
x1 = 0.8601	1129.96	1121.65	1113.29	1100.66	1092.16
x1 = 0.8996	1132.4	1124.05	1115.65	1102.97	1094.46
x1 = 0.948	1135.23	1126.82	1118.38	1105.65	1097.1
x1 = 0.9753	1136.78	1128.35	1119.88	1107.13	1098.56
x1 = 0.9847	1137.31	1128.87	1120.39	1107.62	1099.05
x1 = 0.9897	1137.59	1129.15	1120.66	1107.9	1099.33
x1 = 0.9959	1137.94	1129.5	1121.01	1108.24	1099.68
x1 = 1	1138.17	1129.73	1121.22	1108.46	1099.88
